Tested on: sows
Assay: Oral L-arginine supplementation of sows during pregnancy
Type: in vivo, pigs
Protocol: The experiment was performed with 197 sows that had already produced at least one litter. Sows in the control group (n=95) received a normal diet during gestation. Sows in the L-arginine group (n=102) received a normal diet from insemination until day 13 of pregnancy, an L-arginine supplemented diet from day 14 until day 31, again the control diet from day 32 until day 104 and again the L-arginine supplemented diet from day 105 until farrowing.
The L-arginine supplemented diet was the same as the control diet, except for the addition of 10 g L-arginine per kg.

## N=C(N)NCCC[C@H](N)C(=O)O [L-arginine]
41 sows of the L-arginine group, same percentage as control
  Sows (litters) with stillborn piglets: 47.1%
Not significantly different from control
  Average number of stillborn piglets in litters with stillborn piglets: 1.86±0.22
Piglets born alive, corrected for litter size
  Birth weight NBA corrected for LS: 1597 ± 24 g
Piglets born alive, not corrected for litter size
  Birth weight NBA: 1584 ± 27 g
Piglets per litter, corrected for parity, L-arginine diet day 14-31 and day 105 until farrowing, p<0.05 vs control
  Total number born + mummies: 12.74 ± 0.31
Piglets per litter, L-arginine diet day 14-31 and day 105 until farrowing, p<0.05 vs control
  Total number born (TNB): 12.69 ± 0.31
Piglets per litter, L-arginine diet day 14-31 and day 105 until farrowing, p=0.055 vs control
  Number born alive (NBA): 11.77 ± 0.30^+
piglets, total number born, corrected for litter size
  Birth weight TNB corrected for LS: 1578 ± 23 g
piglets, total number born, not corrected for litter size
  Birth weight TNB: 1563 ± 27 g
sows, diet with 10 g L-arginine per kg added, day 14-31 and day 105 until farrowing, 87/102
  Farrowing rate: 85%
Versus control group
  Effect on litter size (total number born and number born alive), piglets extra: ~1 piglet
